In patent US20130281362A1, “ANTIVIRAL AGENT” (priority 2011, published 2013):

Tested on: influenza A virus strain A/Aichi/02/68 (H3N2)
Parameters: species or system non-inbred male white mice
Conditions: mouse, in vivo, 60 mg/kg

CCOC(=O)c1c(CSc2ccccc2)n(C)c2cc(Br)c(O)c(CN(C)C)c12 [Arbidol 970609]
Death rate: 10/15
Increase in MST: 2.6 days
MST: 9.3 days
Protection against death (%): 33.3%
